Reference: US20260216107A1, “INTERLEUKIN-6 (IL-6)/SIGNAL TRANSDUCER AND ACTIVATOR OF TRANSCRIPTION 3 (STAT3) PATHWAY INHIBITORS FOR USE IN THE TREATMENT OF GRANULOMATOUS DISEASES” (UCL BUSINESS LTD, priority 2023, published 2026)
Entries after “also recorded” stand apart in the source; their conditions may differ.

Legend:
[1] = test system: GPA patients' monocytes; assay: PR3-stimulated MGC formation (fusion index) in GPA patients' monocytes; type: cell-based, human; settings: cultured monocytes; Tocilizumab 10 μg/mL
[2] = test system: THP1 monocytes; assay: PR3-stimulated giant cell formation in THP1 monocytes matured to macrophages; type: cell-based; settings: PMA 24 hours, PR3 10 mcg/ml 72 hours, with or without Stattic; FIG. 19
Experimental: An in vitro model of granulomatous disease was created using THP1 monocytes. The THP1 monocytes were matured to macrophages by the addition of PMA for 24 hours and then stimulated with PR3 at 10 mcg/ml for 72 hours in the presence or absence of Stattic, a STAT3 inhibitor. MGC formation was assessed as before by calculating the fusion index.

[3] = test system: IL-6; assay: IL-6 levels in zebrafish model of granulomatous disease; type: in vivo; settings: PR3 zebrafish model, niclosamide via fish tank water
Excerpt: An in vivo model of granulomatous disease in zebrafish was developed by administering PR3 to the fish.

[4] = test system: macrophage aggregation; assay: PR3-induced macrophage aggregation / MGC formation in zebrafish embryos, niclosamide added to fish water; type: in vivo; settings: for Median aggregate volume: PR3-injected zebrafish, PR3 alone 106969 (41031-465184)
Experimental: The injection of intact or HI PR3 into the zebrafish was repeated in the presence or absence of the IL-6/STAT3 inhibitor niclosamide, which was added to the fish water at different concentrations (0.01-0.3 μmol/l) (FIG. 11B, C). […] Median aggregate volume PR3 vs PR3 and niclosamide 0.3, 0.15. 0.05. 0.01 μmol/ml respectively 106969 (41031-465184), 42730 (25638-324957), 44501 (26861-90354), 63043 (27395-205060), 117473 (35128-245781) (p<0.05 PR3 vs 0.3 and 0.05, p<0.001 PR3 vs 0.15 μmol/l; one way ANOVA).
In Vivo Effect of PR3 on MGC Formation and the Ability of Niclosamide to Reduce MGC Formation In order to understand granuloma formation in vivo, a zebrafish embryo model was developed. Transgenic macrophage reporter zebrafish {Tg (MPEg: cherry)} embryos at 24 hpf, were injected into the yolk sac with human PR3 or Albumin at 1 or 5 […], either untreated or following heat inactivation. Embryos were imaged at 120 hpf with lightsheet microscopy showing volumes of fused macrophages according to the colour scale (see FIG. 8A-D). […] Median (IQR) aggregate volumes were HI albumin 5 pg/ml 22713 μm^3 (19918-31486) and HI PR3 5 pg/ml 31571 μm^3 (23137-49647) (p<0.001, one way ANOVA). In subsequent experiments, the injection of intact or HI PR3 was repeated in the presence or absence of the IL-6-STAT3 inhibitor niclosamide, added to the fish water at different concentrations (0.01-0.3 μmol/l) (see FIG. 8F-G). […] Median aggregate volume PR3 vs PR3 and niclosamide 0.3, 0.15. 0.05. 0.01 μmol/ml respectively 106969 (41031-465184), 42730 (25638-324957), 44501 (26861-90354), 63043 (27395-205060), 117473 (35128-245781) (p<0.05 PR3 vs 0.3 and 0.05, p<0.001 PR3 vs 0.15 μmol/l; one way ANOVA).
In Vivo Danio rerio Model All animal experimental protocols were approved by University College London's Animal Welfare and Ethical Review Body (AWERB) and licensed by the UK Home Office. All experiments were performed in accordance with relevant guidelines and regulations as described in UK Home Office Project License (PPL 70/8365) awarded to Dr Paul Frankel. The Transgeneic Tg (mpeg: GFP) line was kindly provided by Professor Maggie Dallman (Imperial College London, UK). Zebrafish were maintained in mixed-sex populations at 28° C. with a 14 h: 10 h light: dark cycle from 9 am-[…] and within internationally agreed environmental parameters regarding water quality and composition. Following dechorionation and anaesthesia with tricaine (0.2 mg/ml), embryos were microinjected into the yolk sac with 5 pg/mL of PR3, heat inactivated PR3, or albumin and incubated in 10 cm Petri dishes at 28.5° C. After 5 days, living embryos were anaesthetised with tricaine (0.2 mg/ml) and embedded in 2% agarose for 3-dimensional confocal microscopy using a Ziess camera at ×200 magnification to determine macrophage fusion. Z-stacks were analysed using Imaris software version 9.2. Images were 3D rendered and aggregate volumes measured by automated thresholds.

## Tocilizumab: humanised IgG1 monoclonal antibody against the human interleukin-6 (IL-6) receptor (RoActerma, Roche, UK)
[1]
  granuloma formation: reduced granuloma formation

## O=[N+]([O-])c1ccc2c(c1)S(=O)(=O)C=C2 [Stattic]
[2]
  giant cell formation index: significant decrease; also recorded: lower giant cell formation index

## O=C(Nc1ccc([N+](=O)[O-])cc1Cl)c1cc(Cl)ccc1O [niclosamide, Niclosamide]
[3]
  IL-6 levels: reduce IL-6 levels
[4]; FIG. 8F, G, 0.3, 0.15 and 0.05 μmol/ml niclosamide compared to PR3 alone
  aggregate volume and number: reduction in aggregate volume and number
[4]; niclosamide 0.01 μmol/l in fish water
  Median aggregate volume: 117473 (35128-245781) μm^3
[4]; niclosamide 0.05 μmol/l in fish water, p<0.05
  Median aggregate volume: 63043 (27395-205060) μm^3
[4]; niclosamide 0.15 μmol/l in fish water, p<0.001
  Median aggregate volume: 44501 (26861-90354) μm^3
[4]; niclosamide 0.3 μmol/l in fish water, p<0.05
  Median aggregate volume: 42730 (25638-324957) μm^3
[4]; PR3 zebrafish model, niclosamide via fish tank water
  granuloma formation: significantly inhibit granuloma formation
[4]; after injection of enzymatically active or inactive PR3 into the yolk sac
  macrophage aggregation: significantly attenuated
[4]; zebrafish injected with intact or HI PR3, niclosamide 0.01-0.3 μmol/l in fish water, vs PR3 alone
  MGC formation: significantly less MGC formation
[4]; zebrafish injected with intact or HI PR3, niclosamide in fish water
  concentration at which the reduction of MGC formation was maximal: 0.15 µmol/mL
